Source: ChEMBL document CHEMBL3739374, “Synthesis and evaluation of anticancer activity of novel andrographolide derivatives” (Medchemcomm, 2015)
Values after ≈ are worked out from the molar mass of the structure shown.

Tests used:
ACHN = test: Cytotoxicity against human ACHN cells by MTT assay; format: functional, cell-based
B16 = test: Cytotoxicity against mouse B16 cells by MTT assay; format: functional, cell-based
HeLa = test: Cytotoxicity against human HeLa cells by MTT assay; format: functional, cell-based
A549 = test: Cytotoxicity against human A549 cells by MTT assay; format: functional, cell-based
[1] = Cytotoxicity against rat IEC-6 cells by MTT assay; format: cell-based

| Compound | IC50 (ACHN) [µg/mL] | IC50 (B16) [µg/mL] | IC50 (HeLa) [µg/mL] | IC50 (A549) [µg/mL] | IC50 [1] [µg/mL] |
| --- | --- | --- | --- | --- | --- |
| C=C1CC[C@@H]2[C@](C)(CO)[C@H](O)CC[C@@]2(C)[C@@H]1C/C=C1/C(=O)OC[C@H]1O [ANDROGRAPHOLIDE] | 3.03 (≈ 8.65 µM) | 7.54 (≈ 21.5 µM) | 10.4 (≈ 29.7 µM) | 9.71 (≈ 27.7 µM) | 8.26 (≈ 23.6 µM) |
| C[C@@H]1OC[C@@]2(C)[C@H]3CC[C@@]4(CO4)[C@@H](C/C=C4/C(=O)OC[C@H]4O)[C@]3(C)CC[C@H]2O1 | 4.49 (≈ 11.4 µM) | 6.34 (≈ 16.2 µM) | 6.97 (≈ 17.8 µM) | 4.34 (≈ 11.1 µM) | 8.76 (≈ 22.3 µM) |
| C=C1CC[C@@H]2[C@](C)(CO)[C@H](O)CC[C@@]2(C)[C@@H]1/C=C/C1=CCOC1=O | 328 (≈ 986 µM) | 25.2 (≈ 75.7 µM) | 149 (≈ 448 µM) | 117 (≈ 353 µM) | 169 (≈ 509 µM) |
| C=C1CC[C@@H]2[C@]3(C)CO[C@@H](C)O[C@@H]3CC[C@@]2(C)[C@@H]1C/C=C1\C=COC1=O | 60.6 (≈ 169 µM) | 43 (≈ 120 µM) | 48.6 (≈ 135 µM) | 46.9 (≈ 131 µM) | 40 (≈ 112 µM) |
| C[C@@H]1OC[C@@]2(C)[C@H]3CC[C@@]4(CO4)[C@@H](/C=C/C4=CCOC4=O)[C@]3(C)CC[C@H]2O1 | 57.3 (≈ 153 µM) | 44.1 (≈ 118 µM) | 7.78 (≈ 20.8 µM) | 18.2 (≈ 48.6 µM) | 35.1 (≈ 93.6 µM) |
| C=C1CC[C@@H]2[C@]3(C)CO[C@@H](CC)O[C@@H]3CC[C@@]2(C)[C@@H]1C/C=C1/C(=O)OC[C@H]1O | 14.7 (≈ 37.6 µM) | 10.2 (≈ 26.2 µM) | 8.91 (≈ 22.8 µM) | 8.12 (≈ 20.8 µM) | 14.2 (≈ 36.4 µM) |
| C=C1CC[C@@H]2[C@]3(C)CO[C@@H](c4ccccc4)O[C@@H]3CC[C@@]2(C)[C@@H]1C/C=C1/C(=O)OC[C@H]1O | 4.78 (≈ 10.9 µM) | 9.54 (≈ 21.8 µM) | 3.8 (≈ 8.66 µM) | 4.07 (≈ 9.28 µM) | 19.2 (≈ 43.8 µM) |
| COc1cccc2c1C(=O)c1c(O)c3c(c(O)c1C2=O)C[C@@](O)(C(=O)CO)C[C@@H]3O[C@H]1C[C@H](N)[C@H](O)[C@H](C)O1 [DOXORUBICIN] | 2.08 (≈ 3.83 µM) | 3.16 (≈ 5.81 µM) | 1.28 (≈ 2.35 µM) |  | 2.6 (≈ 4.78 µM) |
| C=C1CC[C@@H]2[C@]3(C)CO[C@@H](CCCC)O[C@@H]3CC[C@@]2(C)[C@@H]1C/C=C1/C(=O)OC[C@H]1O | 15.3 (≈ 36.7 µM) | 21.1 (≈ 50.4 µM) | 14.1 (≈ 33.6 µM) | 33.5 (≈ 80.1 µM) | 31.2 (≈ 74.6 µM) |
| C=C1CC[C@@H]2[C@]3(C)CO[C@@H](CCCCC)O[C@@H]3CC[C@@]2(C)[C@@H]1C/C=C1/C(=O)OC[C@H]1O | 9.54 (≈ 22.1 µM) | 10 (≈ 23.1 µM) | 8.51 (≈ 19.7 µM) | 7.07 (≈ 16.3 µM) | 22.4 (≈ 51.7 µM) |
| C=C1CC[C@@H]2[C@]3(C)CO[C@@H](C)O[C@@H]3CC[C@@]2(C)[C@@H]1C/C=C1/C(=O)OC[C@H]1O | 2.47 (≈ 6.56 µM) | 4.78 (≈ 12.7 µM) | 4.27 (≈ 11.3 µM) | 2.43 (≈ 6.45 µM) | 6.34 (≈ 16.8 µM) |
| C=C1CC[C@@H]2[C@]3(C)CO[C@@H](C)O[C@@H]3CC[C@@]2(C)[C@@H]1C/C=C1/C(=O)OC[C@H]1OC(C)=O | 8.54 (≈ 20.4 µM) | 4.01 (≈ 9.58 µM) | 4.43 (≈ 10.6 µM) | 3.34 (≈ 7.98 µM) | 7.23 (≈ 17.3 µM) |
| C=C1CC[C@@H]2[C@]3(C)CO[C@@H](C)O[C@@H]3CC[C@@]2(C)[C@@H]1/C=C/C1=CCOC1=O | 125 (≈ 349 µM) | 62 (≈ 173 µM) | 56.2 (≈ 157 µM) | 88.7 (≈ 247 µM) | 94.3 (≈ 263 µM) |
| C=C1CC[C@@H]2[C@]3(C)CO[C@@H](CCC)O[C@@H]3CC[C@@]2(C)[C@@H]1C/C=C1/C(=O)OC[C@H]1O | 32.9 (≈ 81.4 µM) | 44.4 (≈ 110 µM) | 27 (≈ 66.8 µM) | 23 (≈ 56.8 µM) | 14.1 (≈ 35 µM) |
| CC(=O)O[C@@H]1COC(=O)/C1=C/C[C@@H]1[C@@]2(CC[C@@H]3[C@]4(C)CO[C@@H](C)O[C@@H]4CC[C@]31C)CO2 | 5.58 (≈ 12.8 µM) | 6.98 (≈ 16.1 µM) | 7.12 (≈ 16.4 µM) | 4.37 (≈ 10.1 µM) | 14.5 (≈ 33.4 µM) |
